Ki, Emax and EC50 data for 29 molecules are collected here from ChEMBL document CHEMBL1641396, “4-Oxo-1,4-dihydropyridines as selective CB2 cannabinoid receptor ligands: structural insights into the design of a novel inverse agonist series” (J Med Chem, 2010).

Assay [1] deals with T1, Cannabinoid receptor 2 (Homo sapiens, UniProt P34972). Briefly: Displacement of [3H]-CP55940 from human CB2 receptor expressed in CHO cells after 1 hr. The format is cell-based.
The target of assay [2] is T1, Cannabinoid receptor 2. Put plainly: Agonist activity at human CB2 receptor expressed in CHO cells assessed as stimulation of [35S]-GTPgammaS binding relative to basal activity. The class given is functional, cell-based.
In assay [3] the target is T1, Cannabinoid receptor 2. Put plainly: Agonist activity at human CB2 receptor expressed in CHO cells assessed as stimulation of [35S]-GTPgammaS binding. The class given is functional, cell-based.
Assay [4] concerns the target Cannabinoid receptor 1 (Homo sapiens, UniProt P21554). Put plainly: Displacement of [3H]-SR141716A from human CB1 receptor expressed in CHO cells after 1 hr. The class given is cell-based.

Cannabinoid receptor 1, sequence (P21554 whole entry): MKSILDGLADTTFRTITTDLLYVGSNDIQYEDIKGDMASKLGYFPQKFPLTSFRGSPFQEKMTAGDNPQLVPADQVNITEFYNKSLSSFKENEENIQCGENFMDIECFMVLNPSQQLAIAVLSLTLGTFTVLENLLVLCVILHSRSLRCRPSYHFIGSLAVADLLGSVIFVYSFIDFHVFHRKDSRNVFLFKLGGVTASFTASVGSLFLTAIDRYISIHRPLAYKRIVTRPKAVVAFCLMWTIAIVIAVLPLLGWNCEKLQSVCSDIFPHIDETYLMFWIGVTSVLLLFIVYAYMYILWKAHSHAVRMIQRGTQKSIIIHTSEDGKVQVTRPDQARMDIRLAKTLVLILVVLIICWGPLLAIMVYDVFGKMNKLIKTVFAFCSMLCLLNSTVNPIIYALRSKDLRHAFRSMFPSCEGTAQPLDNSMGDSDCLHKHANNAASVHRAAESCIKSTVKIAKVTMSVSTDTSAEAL
T1 sequence (P34972 whole entry): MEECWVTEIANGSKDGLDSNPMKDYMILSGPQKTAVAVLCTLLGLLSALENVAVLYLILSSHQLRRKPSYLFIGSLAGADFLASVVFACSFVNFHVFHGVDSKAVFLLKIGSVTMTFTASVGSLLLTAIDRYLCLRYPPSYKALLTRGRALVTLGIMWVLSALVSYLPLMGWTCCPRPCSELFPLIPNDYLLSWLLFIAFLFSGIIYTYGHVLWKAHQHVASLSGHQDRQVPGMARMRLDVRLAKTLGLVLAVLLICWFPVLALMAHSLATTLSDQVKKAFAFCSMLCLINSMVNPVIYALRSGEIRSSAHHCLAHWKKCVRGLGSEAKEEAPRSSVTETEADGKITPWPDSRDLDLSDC

In the case of `CCCCCn1cc(C(=O)NC23CC4CC(CC(C4)C2)C3)c(=S)cc1-c1ccccc1`, the inhibitory constant (Ki) is 18.8 nM in assay [1] and over 1000 nM in assay [4]. In addition, in assay [2], the Emax is 30%. In assay [3], the EC50 turned out to be 17 nM.

In assay [4], `CCCCCn1cc(C(=O)NC2CCCCC2)c(=O)cc1C(C)(C)C` displayed a Ki of over 3000 nM.

As to `CCCCCn1cc(C(=O)Nc2cccc(C(F)(F)F)c2)c(=O)cc1-c1ccc(Cl)cc1`, the Ki in assay [1] and in assay [4] was over 1000 nM in each case. Moreover, in assay [2], the maximal response (Emax) stood at 42%. The EC50 in assay [3] turned out to be 158 nM.

For `CCCCCn1cc(NC(=O)C2CCCCC2)c(=O)cc1-c1ccccc1`, the results for the Ki in assay [1] and in assay [4] were 51 nM and over 3000 nM, respectively. In assay [2], the Emax came to 43%. The concentration giving a half-maximal response (EC50) in assay [3] stood at 25 nM.

As for `CCCCCn1cc(C(=O)NC2CCCCC2)c(=O)cc1-c1ccccc1`, the maximal effect (Emax) in assay [2] was 62%. Also, affinity in assay [4] was put at a Ki of 929 nM.

On to `CCCCCn1cc(C(=O)NC23CC4CC(CC(C4)C2)C3)c(=O)cc1-c1ccc(C)cc1`, for which the Ki in assay [1] stood at 13.2 nM; in assay [4] it was 134 nM.

Turning to `CCCCCn1cc(NC(=O)OC(C)(C)C)c(=O)cc1-c1ccccc1`, the figures for the Ki in assay [1] and in assay [4] were 209 nM and over 3000 nM, respectively. The Emax in assay [2] was determined as 26%. In assay [3], the EC50 was determined as 164 nM.

`Cc1c(C(=O)c2cccc3ccccc23)c2cccc3c2n1[C@H](CN1CCOCC1)CO3`: in assay [2], the Emax stood at 207%.

The molecule `CCCC(C)(C)c1ccc2c(c1)OC(C)(C)[C@@H]1CC=C(O)C[C@@H]21` displayed a Ki in assay [1] of 20.3 nM. For the same molecule, the Emax in assay [2] was determined as 201%. Further, the EC50 in assay [3] is 146 nM.

As for `CCCCCn1cc(C(=O)NN2CCCCC2)c(=O)cc1-c1ccccc1`, the maximum response (Emax) in assay [2] was determined as 48%. This molecule showed an inhibitory constant (Ki) in assay [4] of over 3000 nM.

Regarding `CCn1cc(C(=O)NC(C)C23CC4CC(CC(C4)C2)C3)c(=O)cc1-c1ccccc1` (racemic), in assay [4], the inhibition constant (Ki) was over 3000 nM.

For `CCCCCn1cc(C(=O)NC23CC4CC(CC(C4)C2)C3)c(=O)cc1-c1cccc(Cl)c1`, the values for the inhibition constant Ki in assay [1] and in assay [4] were 1.8 nM and 51.2 nM, respectively.

The molecule `CCCCCn1cc(C(=O)NC23CC4CC(CC(C4)C2)C3)c(=O)cc1-c1ccc(Cl)cc1` had a Ki in assay [4] of over 1000 nM.

Regarding `CCCCCn1cc(C(=O)NC23CC4CC(CC(C4)C2)C3)c(=O)cc1C`, in assay [2], the Emax came to 148%. In assay [4], this molecule showed an inhibition constant Ki of over 3000 nM.

Consider `CCCCCn1cc(C(=O)NC2CCCCC2)c(=S)cc1-c1ccccc1`, for which the Ki in assay [1] was 48 nM; in assay [4], over 1000 nM. Also, the Emax in assay [2] was found to be 45%. For the same molecule, the concentration for a half-maximal effect (EC50) in assay [3] came to 27 nM.

With `CCCCCn1cc(C(=O)NC23CC4CC(CC(C4)C2)C3)c(=O)cc1-c1ccc(OC)cc1`, the inhibition constant (Ki) in assay [1] turned out to be 91.1 nM; in assay [4], 384 nM.

Regarding `CCCCCn1cc(C(=O)NC23CC4CC(CC(C4)C2)C3)c(=O)cc1C(C)(C)C`, the maximal effect (Emax) in assay [2] was determined as 212%. The molecule also yielded a Ki in assay [4] of over 3000 nM.

In the case of `CCCCCn1cc(C(=O)N[C@@H]2CCCc3ccccc32)c(=O)cc1-c1ccccc1`, the Emax in assay [2] came to 42%. The affinity in assay [4], expressed as Ki, was 131 nM.

In assay [4], `CCCCCn1cc(C(=O)NC23CC4CC(CC(C4)C2)C3)c(=O)cc1-c1ccccc1` gave a Ki of 592 nM.

As for `CC(NC(=O)c1cn(-c2ccccc2)c(-c2ccccc2)cc1=O)C12CC3CC(CC(C3)C1)C2` (racemic), the Ki in assay [1] and in assay [4] was over 3000 nM throughout.

For `CCCCCn1cc(C(=O)NC23CC4CC(CC(C4)C2)C3)c(=O)cc1-c1ccccc1Cl`, the inhibition constant (Ki) worked out at 0.7 nM in assay [1] and 34.4 nM in assay [4].

Regarding `CCCCCn1cc(C(=O)N[C@H]2CCCc3ccccc32)c(=O)cc1-c1ccccc1`, the Emax in assay [2] turned out to be 48%. The molecule further gave an inhibition constant (Ki) in assay [4] of over 1000 nM.

On to `CCCCCn1cc(C(=O)NCC23CC4CC(CC(C4)C2)C3)c(=O)cc1-c1ccccc1`, for which the inhibitory constant (Ki) in assay [4] was found to be 626 nM.

Regarding `CCCCCCn1cc(C(=O)NC23CC4CC(CC(C4)C2)C3)c(=O)cc1-c1ccccc1`, affinity in assay [4] was put at a Ki of 596 nM.

As for `CCCCCCC(C)(C)c1ccc([C@@H]2C[C@H](O)CC[C@H]2CCCO)c(O)c1`, in assay [2], the maximal response (Emax) turned out to be 230%.

Turning to `CCCCCn1cc(C(=O)NC(C)C23CC4CC(CC(C4)C2)C3)c(=O)cc1-c1ccccc1` (racemic), the Emax in assay [2] was 46%. The molecule further showed a Ki in assay [4] of 368 nM.

`CCCCCn1cc(C(=O)NC2CCCCC2)c(=O)cc1-c1ccc(Cl)cc1`: the Emax in assay [2] came to 39%. Moreover, in assay [4], the Ki was over 1000 nM.

For the molecule `CCCCCn1cc(C(=O)Nc2cccc(C(F)(F)F)c2)c(=O)cc1-c1ccccc1`, the values for the Ki in assay [1] and in assay [4] were 25.8 nM and over 3000 nM, respectively. In addition, in assay [2], the Emax was found to be 42%. Moreover, the EC50 in assay [3] was determined as 14 nM.

Regarding `CCCCn1cc(C(=O)NC23CC4CC(CC(C4)C2)C3)c(=O)cc1-c1ccccc1`, the Ki in assay [4] is over 1000 nM.
